“And” between values parts separate entries of the source, which are not always exact repeats. Identical values can stand only once. Counter-ions that a name gives are not always drawn. Like-named read-outs stand apart in the source and are kept apart here.
Key:
[1] = tested on: SUDHL10; assay: Induction of caspase-3/7 activity (Caspase-Glo 3/7), SUDHL10; assay type: cell-based; conditions: caspase-3/7 induction, SUDHL10 cells, 3 h treatment, median
Outline: (§1)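 A 3 h, 37 °C compound incubation precedes the Caspase-Glo 3/7 read. After subtracting medium-only signal, EC50s are fitted against the reference compound's maximal caspase induction.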

[2] = tested on: SUDHL5; assay: Induction of caspase-3/7 activity (Caspase-Glo 3/7), SUDHL5; assay type: cell-based; conditions: caspase-3/7 induction, SUDHL5 cells, 3 h treatment, median
Outline: as §1

[3] = tested on: SUDHL5; assay: Induction of cytotoxicity (CellTiter-Glo, 5 h), SUDHL5
[4] = molecular target: MCL-1 (Homo sapiens, UniProt Q07820); assay: Protein-protein interaction assay MCL-1/Noxa BH3 peptide (MCL-1 assay), TR-FRET; assay type: binding; conditions: MBP-MCL-1 / Noxa BH3-derived peptide, median
Sequence of MCL-1 (Q07820 whole entry): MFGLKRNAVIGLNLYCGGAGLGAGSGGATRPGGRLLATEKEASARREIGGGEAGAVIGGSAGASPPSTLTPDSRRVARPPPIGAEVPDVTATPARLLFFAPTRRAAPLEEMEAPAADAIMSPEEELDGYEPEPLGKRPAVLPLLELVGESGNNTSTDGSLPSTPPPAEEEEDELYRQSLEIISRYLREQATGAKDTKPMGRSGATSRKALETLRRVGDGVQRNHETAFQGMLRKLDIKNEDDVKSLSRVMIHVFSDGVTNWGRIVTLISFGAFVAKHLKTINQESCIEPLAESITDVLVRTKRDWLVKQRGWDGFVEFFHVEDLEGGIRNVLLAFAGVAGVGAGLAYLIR
Outline: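 Steady-state competition, MCL-1/Noxa BH3, TR-FRET readout; 1 nM MBP-MCL-1, 11-point dose series 0.1 nM–20 μM; overnight 4 °C equilibration; 4-parameter IC50.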

[5] = tested on: A2780; assay: Anti-proliferative effect (CellTiter-Glo, 72 h), A2780; assay type: cell-based; conditions: A2780 cells, median, read-out: IC50 antiproliferation assay A2780 [M] (median)
Outline: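 Endpoint: CellTiter-Glo luminescence, 10 min after reagent addition. Treatment ran 72 h at 37 °C, humidified. Growth was referenced to a separately plated day 0 plate.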

[6] = Homo sapiens, SU-DHL-5, 5 h, read-out: Cytotox SUDHL5 [M] (median), SUDHL5 cells, cytotoxicity induction, CellTiter-Glo, 5 h incubation, median
[7] = read-out: Cytotox SUDHL5 [M] (median), SUDHL5 cells, cytotoxicity induction, CellTiter-Glo, 5 h incubation, median

EC50 ([1]; Homo sapiens, SU-DHL10, 3 h)	EC50 ([2]; Homo sapiens, SU-DHL-5, 3 h)	IC50 [4]	IC50 ([5]; Homo sapiens, A2780, 72 h)	EC50 [1]	EC50 [2]	IC50 [5]	SMILES	IC50 [3, 6]	IC50 [3, 7]
24.8 µM	7.47 µM	0.00501 µM	2.14e-05 M	–	–	–	Cc1ccc2c(CCCOc3cccc4c3CCCC4)c(C(=O)O)n3c2c1-c1c(C)nn(C)c1COCCCC3 (racemic) [Example 039, (rac)-1,3,4-trimethyl-7-[3-(5,6,7,8-tetrahydronaphthalen-1-yloxy)propyl]-110,11,12,13,15-hexahydropyrazolo[4′3′:9,10][1,6]oxazacycloundecino[8,7,6-hi]indole-8-carboxylic Acid]	8.59e-06 M	–
5.12 µM	1.7 µM	0.0048 µM	1.52e-05 M	–	–	–	CCc1c2c(nn1C)COCCCCn1c(C(=O)O)c(CCCOc3cccc4ccccc34)c3ccc(C)c-2c31 (racemic) [Example 153, (rac)-3-Ethyl-2,4-dimethyl-7-[3-(1-naphthyloxy)propyl]-2,10,11,12,13,15-hexahydropyrazolo[4′,3′:9,10][1,6]oxazacycloundecino[8,7,6-hi]indole-8-carboxylic Acid]	1.65e-06 M	–
–	–	0.0322 µM	–	18.6 µM	21.9 µM	1.14e-05 M	Cc1c2c(nn1CCN1CCOCC1)CN(C)CCCn1c(C(=O)O)c(CCCOc3cccc4ccccc34)c3cccc-2c31 (single isomer, unassigned; enantiomer 2) [Example 061, 7,11-dimethyl-10-[2-(morpholin-4-yl)ethyl]-1-[3-(naphthalen-1-yloxy)propyl]-4,5,6,7,8,10-hexahydropyrazolo[3′,4′:7,8][1,5]diazecino[9,10,1-hi]indole-2-carboxylic Acid (Enantiomer 2)]	–	1.63e-05 M
–	–	0.00117 µM	1.36e-05 M	2.57 µM	0.889 µM	–	CCc1c2c(nn1C)CN(C)CCCn1c(C(=O)O)c(CCCOc3cccc4ccccc34)c3ccc(C)c-2c31 (single isomer, unassigned; enantiomer 1) [Example 145, 11-Ethyl-7,10,12-trimethyl-1-[3-(1-naphthyloxy)propyl]-4,5,6,7,8,10-hexahydropyrazolo[3′,4′:7,8][1,5]diazecino[9,10,1-hi]indole-2-carboxylic acid-N-ethylethanamine Salt (Enantiomer 1)]	–	1.4e-06 M
–	–	0.00171 µM	–	4.91 µM	1.47 µM	> 3.3e-05 M and 2.08e-05 M	COCCn1nc2c(c1C)-c1cccc3c(CCCOc4cccc5ccccc45)c(C(=O)O)n(c13)CCCCOC2 (single isomer, unassigned; enantiomer 1) [Example 107, 2-(2-methoxyethyl)-3-methyl-7-[3-(naphthalen-1-yloxy)propyl]-2,10,11,12,13,15-hexahydropyrazolo[4′,3′:9,10][1,6]oxazacycloundecino[8,7,6-hi]indole-8-carboxylic acid-N-ethylethanamine Salt (Enantiomer 1)]	–	1.73e-06 M
18.2 µM	–	0.00444 µM	1.81e-05 M	–	13.1 µM	–	Cc1nn(C)c2c1-c1cccc3c(CCCOc4cccc5cc(Cl)ccc45)c(C(=O)O)n(c13)CCCCOC2 (single isomer, unassigned; enantiomer 1) [Example 041, 7-{3-[(6-chloronaphthalen-1-yl)oxy]propyl}-1,3-dimethyl-1,10,11,12,13,15-hexahydropyrazolo[4′,3′:9,10][1,6]oxazacycloundecino[8,7,6-hi]indole-8-carboxylic acid-N-ethylethanamine Salt (Enantiomer 1)]	–	1.02e-05 M
7.3 µM	4.08 µM	0.00727 µM	1.48e-05 M	–	–	–	CCc1c2c(nn1C)CN(C)CCCn1c(C(=O)O)c(CCCOc3cccc4ccccc34)c3cccc-2c31 (racemic) [Example 141, (rac)-11-ethyl-7,10-dimethyl-1-[3-(1-naphthyloxy)propyl]-4,5,6,7,8,10-hexahydropyrazolo[3′,4′:7,8][1,5]diazecino[9,10,1-hi]indole-2-carboxylic Acid]	3.66e-06 M	–
–	–	0.00544 µM	2.21e-05 M	8.54 µM	5.13 µM	–	Cc1c2c(nn1CCN1CCOCC1)CN(C)CCCn1c(C(=O)O)c(CCCOc3cccc4ccccc34)c3cccc-2c31 (single isomer, unassigned; enantiomer 1) [Example 060, 7,11-dimethyl-10-[2-(morpholin-4-yl)ethyl]-1-[3-(naphthalen-1-yloxy)propyl]-4,5,6,7,8,10-hexahydropyrazolo[3′,4′:7,8][1,5]diazecino[9,10,1-hi]indole-2-carboxylic Acid (Enantiomer 1)]	–	4.3e-06 M

Continued, molecule first:

SMILES	EC50 ([1]; Homo sapiens, SU-DHL10, 3 h)	EC50 ([2]; Homo sapiens, SU-DHL-5, 3 h)	IC50 [4]	IC50 ([5]; Homo sapiens, A2780, 72 h)	EC50 [1]	EC50 [2]	IC50 [5]	IC50 [3, 6]	IC50 [3, 7]
Cn1nc(COc2ccc(N3CCN(S(C)(=O)=O)CC3)cc2)c2c1COCCCCn1c(C(=O)O)c(CCCOc3cccc4ccccc34)c3cccc-2c31 (single isomer, unassigned; enantiomer 2) [Example 1-10, 1-methyl-3-({4-[4-(methylsulfonyl)piperazin-1-yl]phenoxy}methyl)-7-[3-(naphthalen-1-yloxy)propyl]-1,10,11,12,13,15-hexahydropyrazolo[4′,3′:9,10][1,6]oxazacycloundecino[8,7,6-hi]indole-8-carboxylic acid (enantiomer 2)]	–	–	0.00093 µM	–	0.755 µM	0.486 µM	1.19e-05 M	–	4.33e-07 M
Cc1nn(C)c2c1-c1cccc3c(CCCOc4cccc5ccccc45)c(C(=O)O)n(c13)CCCN(C)C2 (single isomer, unassigned; enantiomer 1) [Example 1-31, 7,9,11-trimethyl-1-[3-(naphthalen-1-yloxy)propyl]-4,5,6,7,8,9-hexahydropyrazolo[3′,4′:7,8][1,5]diazecino[9,10,1-hi]indole-2-carboxylic Acid-N-ethylethanamine Salt (Enantiomer 1)]	–	–	0.00462 µM	> 3.3e-05 M	7.27 µM	4.33 µM	–	–	4.6e-06 M
Cc1nn(C)c2c1-c1cccc3c(CCCOc4cccc5cc(F)ccc45)c(C(=O)O)n(c13)CCCCOC2 (single isomer, unassigned; enantiomer 1) [Example 019, 7-{3-[(6-fluoronaphthalen-1-yl)oxy]propyl}-1,3-dimethyl-1,10,11,12,13,15-hexahydropyrazolo[4′,3′:9,10][1,6]oxazacycloundecino[8,7,6-hi]indole-8-carboxylic Acid-N-ethylethanamine Salt (Enantiomer 1)]	–	–	0.000862 µM	–	5.16 µM	1.52 µM	> 3.3e-05 M	–	1.68e-06 M
Cc1nn(C)c2c1-c1cccc3c(CCCOc4ccc(F)c5ccccc45)c(C(=O)O)n(c13)CCCCOC2 (single isomer, unassigned; enantiomer 2) [Example 023, 7-{3-[(4-fluoronaphthalen-1-yl)oxy]propyl}-1,3-dimethyl-1,10,11,12,13,15-hexahydropyrazolo[4′3′:9,10][1,6]oxazacycloundecino[8,7,6-hi]indole-8-carboxylic acid-N-ethylethanamine Salt (Enantiomer 2)]	–	–	0.00169 µM	–	7.46 µM	2.15 µM	2e-05 M and > 3.3e-05 M	–	1.84e-06 M
Cc1nn(C)c2c1-c1cccc3c(CCCOc4cccc5ccccc45)c(C(=O)O)n(c13)CCCCOCC2 (racemic) [Example 017, (rac)-1,3-dimethyl-7-[3-(1-naphthyloxy)propyl]-10,11,12,13,15,16-hexahydro-1H-pyrazolo[4′,3′:9,10][1,6]oxazacyclododecino[8,7,6-hi]indole-8-carboxylic Acid]	> 33 µM	14.7 µM	0.00896 µM	> 3.3e-05 M	31.9 µM	–	–	1.36e-05 M	–
Cc1c2c(nn1C)COCCCCn1c(C(=O)O)c(CCCOc3cccc4ccccc34)c3cccc-2c31 (racemic) [Example 1-36, (rac)-2,3-dimethyl-7-[3-(naphthalen-1-yloxy)propyl]-2,10,11,12,13,15-hexahydropyrazolo[4′,3′:9,10][1,6]oxazacycloundecino[8,7,6-hi]indole-8-carboxylic Acid]	7.51 µM	3.94 µM	0.00328 µM	> 3.3e-05 M	–	–	–	3.69e-06 M	–
CN1CCCn2c(C(=O)O)c(CCCOc3cccc4ccccc34)c3cccc(c32)-c2c(COc3ccc(N4CCN(S(=O)(=O)N(C)C)CC4)cc3)nn(C)c2C1 (single isomer, unassigned; enantiomer 1) [Example 1-15, (+)-11-({4-[4-(dimethylsulfamoyl)piperazin-1-yl]phenoxy}methyl)-7,9-dimethyl-1-[3-(naphthalen-1-yloxy)propyl]-4,5,6,7,8,9-hexahydropyrazolo[3′,4′:7,8][1,5]diazecino[9,10,1-hi]indole-2-carboxylic Acid (Enantiomer 1)]	–	–	0.00303 µM	7.24e-06 M	1.82 µM	1.17 µM	–	–	1.38e-06 M

Reference: patent publication US10981932B2, “Macrocyclic indole derivatives” (Bayer Aktiengesellschaft, priority 2016, dated 2021)
